Results as given in patent publication US9624229B2, “Pyrimidine-2-amine compounds and their use as inhibitors of JAK kinases” (Rigel Pharmaceuticals, Inc., priority 2008, dated 2017).
Where two headings read alike, the source gives them in different places.

Target: Ba/F3 V617F cells (Homo sapiens, UniProt O60674, V617F, cells depend on it)
Experiment: Proliferation assay (Cell Titer-Glo, 72 h) utilizing Ba/F3 V617F cells
Format: cell-based, mouse
Conditions: read-out: IC50 (the source's name)
Summary of the method: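 Ba/F3 V617F cells in RPMI/10% FBS, 1×10^5 cells/mL, exposed in duplicate to 3-fold serial compound dilutions (top 5 mM DMSO stock, diluted 1:250, added as 2× solution in 5% FBS medium) for 72 h at 37 °C. Viability by Cell Titer-Glo luminescence; IC50 reported.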

[1] = Ba/F3 V617F cells, proliferation, level of activity given as class symbol

Ba/F3 V617F cells, sequence (O60674 whole entry V617F): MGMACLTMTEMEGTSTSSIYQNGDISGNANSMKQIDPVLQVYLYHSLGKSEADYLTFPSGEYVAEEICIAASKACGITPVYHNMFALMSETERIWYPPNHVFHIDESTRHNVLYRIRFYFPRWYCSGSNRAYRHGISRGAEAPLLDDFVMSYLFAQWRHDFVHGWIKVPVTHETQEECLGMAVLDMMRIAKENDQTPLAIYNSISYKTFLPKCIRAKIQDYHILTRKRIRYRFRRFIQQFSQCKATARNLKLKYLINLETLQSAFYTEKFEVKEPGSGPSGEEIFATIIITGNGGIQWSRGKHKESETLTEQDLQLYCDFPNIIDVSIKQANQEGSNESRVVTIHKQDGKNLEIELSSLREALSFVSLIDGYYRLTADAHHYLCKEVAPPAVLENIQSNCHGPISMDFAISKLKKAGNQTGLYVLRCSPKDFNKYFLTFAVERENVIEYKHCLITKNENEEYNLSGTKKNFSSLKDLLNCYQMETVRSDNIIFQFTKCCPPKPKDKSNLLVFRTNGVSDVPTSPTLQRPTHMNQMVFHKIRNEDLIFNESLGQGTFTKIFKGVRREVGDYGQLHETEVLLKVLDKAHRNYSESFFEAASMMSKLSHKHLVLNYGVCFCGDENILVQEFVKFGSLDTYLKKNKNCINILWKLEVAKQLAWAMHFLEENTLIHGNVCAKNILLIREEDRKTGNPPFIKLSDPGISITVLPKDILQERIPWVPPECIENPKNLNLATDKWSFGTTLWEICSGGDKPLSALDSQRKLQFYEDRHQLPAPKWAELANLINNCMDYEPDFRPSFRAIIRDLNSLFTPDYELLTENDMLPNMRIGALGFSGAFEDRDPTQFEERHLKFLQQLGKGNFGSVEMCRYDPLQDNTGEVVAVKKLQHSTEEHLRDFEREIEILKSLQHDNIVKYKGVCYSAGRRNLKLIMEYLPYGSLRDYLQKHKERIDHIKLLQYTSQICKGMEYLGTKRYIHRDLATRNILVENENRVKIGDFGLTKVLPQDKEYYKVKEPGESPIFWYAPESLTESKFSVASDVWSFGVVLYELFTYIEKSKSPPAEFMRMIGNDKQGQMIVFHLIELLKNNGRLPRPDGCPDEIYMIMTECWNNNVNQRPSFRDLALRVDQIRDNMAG

Compound: CN1C[C@@H]2C[C@H]1CN2c1ccc(Nc2nccc(-c3ccc(N4CCOCC4)nc3)n2)cc1Cl [compound 255, 4-(6-(morpholin-4-yl)pyridin-3-yl)-N-(3-chloro-4-((1S,4S)-5-methyl-2,5-diazabicyclo[2.2.1]heptan-2-yl)phenyl)pyrimidin-2-amine]
- GI50 [1]: < 1000 nM

Compound: Cc1cc(Nc2nccc(-c3ccnc(C(F)(F)F)c3)n2)ccc1N1C[C@@H]2C[C@H]1CN2C [compound 256, 4-(2-(trifluoromethyl)pyridin-4-yl)-N-(3-methyl-4-((1S,4S)-5-methyl-2,5-diazabicyclo[2.2.1]heptan-2-yl)phenyl)pyrimidin-2-amine]
- GI50 [1]: < 1000 nM

Compound: CS(=O)(=O)N1C[C@@H]2C[C@H]1CN2c1ccc(Nc2nccc(-c3ccc(N4CCOCC4)nc3)n2)cc1Cl [compound 257, 4-(6-(morpholin-4-yl)pyridin-3-yl)-N-(3-chloro-4-((1S,4S)-5-(methylsulfonyl)-2,5-diazabicyclo[2.2.1]heptan-2-yl)phenyl)pyrimidin-2-amine]
- GI50 [1]: < 1000 nM

Compound: CS(=O)(=O)N1C[C@@H]2C[C@H]1CN2c1ccc(Nc2nccc(-c3ccc(OC4CCOCC4)nc3)n2)cc1Cl [compound 258, 4-(6-(tetrahydropyran-4-yloxy)pyridin-3-yl)-N-(3-chloro-4-((1S,4S)-5-(methylsulfonyl)-2,5-diazabicyclo[2.2.1]heptan-2-yl)phenyl)pyrimidin-2-amine]
- GI50 [1]: 1000 to 10000 nM

Compound: CC(=O)N1C[C@@H]2C[C@H]1CN2c1ccc(Nc2nccc(-c3ccc(N4CCOCC4)nc3)n2)cc1Cl [compound 259, 4-(6-(morpholin-4-yl)pyridin-3-yl)-N-(3-chloro-4-((1S,4S)-5-acetyl-2,5-diazabicyclo[2.2.1]heptan-2-yl)phenyl)pyrimidin-2-amine]
- GI50 [1]: < 1000 nM

Compound: CC(=O)N1C[C@@H]2C[C@H]1CN2c1ccc(Nc2nccc(-c3ccc(OC4CCOCC4)nc3)n2)cc1Cl [compound 260, 4-(6-(tetrahydropyran-4-yloxy)pyridin-3-yl)-N-(3-chloro-4-((1S,4S)-5-acetyl-2,5-diazabicyclo[2.2.1]heptan-2-yl)phenyl)pyrimidin-2-amine]
- GI50 [1]: 1000 to 10000 nM

Compound: Cc1cc(Nc2nccc(-c3ccc(OC4CCOCC4)nc3)n2)ccc1N1C[C@@H]2C[C@H]1CN2C [compound 261, 4-(6-(tetrahydropyran-4-yloxy)pyridin-3-yl)-N-(3-methyl-4-((1S,4S)-5-methyl-2,5-diazabicyclo[2.2.1]heptan-2-yl)phenyl)pyrimidin-2-amine]
- GI50 [1]: < 1000 nM

Compound: Cc1cc(Nc2nccc(-c3ccc(OC4CCOCC4)nc3)n2)ccc1N1C[C@@H]2C[C@H]1CN2C1CCCC1 [compound 262, 4-(6-(tetrahydropyran-4-yloxy)pyridin-3-yl)-N-(3-methyl-4-((1S,4S)-5-cyclopentyl-2,5-diazabicyclo[2.2.1]heptan-2-yl)phenyl)pyrimidin-2-amine]
- GI50 [1]: < 1000 nM

Compound: CC(C)N1C[C@@H]2C[C@H]1CN2c1ccc(Nc2nccc(-c3ccc(N4CCOCC4)nc3)n2)cc1Cl [compound 263, 4-(6-(morpholin-4-yl)pyridin-3-yl)-N-(3-chloro-4-((1S,4S)-5-(1-methylethyl)-2,5-diazabicyclo[2.2.1]heptan-2-yl)phenyl)pyrimidin-2-amine]
- GI50 [1]: < 1000 nM

Compound: Cc1cc(Nc2nccc(-c3ccc(N4C[C@@H]5C[C@H]4CO5)nc3)n2)ccc1N1C[C@@H]2C[C@H]1CN2S(C)(=O)=O [compound 264, 4-(6-((1S,4S)-2-oxa-5-azabicyclo[2.2.1]heptan-5-yl)pyridin-3-yl)-N-(3-methyl-4-((1S,4S)-5-(methylsulfonyl)-2,5-diazabicyclo[2.2.1]heptan-2-yl)phenyl)pyrimidin-2-amine]
- GI50 [1]: < 1000 nM

Compound: Cc1cc(Nc2nccc(-c3ccc(N4C[C@H]5C[C@@H]4CO5)nc3)n2)ccc1N1C[C@@H]2C[C@H]1CN2C [compound 265, 4-(6-((1R,4R)-2-oxa-5-azabicyclo[2.2.1]heptan-5-yl)pyridin-3-yl)-N-(3-methyl-4-((1S,4S)-5-methyl-2,5-diazabicyclo[2.2.1]heptan-2-yl)phenyl)pyrimidin-2-amine]
- GI50 [1]: < 1000 nM

Compound: Cc1cc(Nc2nccc(-c3ccc(N4C[C@@H]5C[C@H]4CO5)nc3)n2)cnc1N1C[C@@H]2C[C@H]1CN2C [compound 266, 4-(6-((1S,4S)-2-oxa-5-azabicyclo[2.2.1]heptan-5-yl)pyridin-3-yl)-N-(5-methyl-6-((1S,4S)-5-methyl-2,5-diazabicyclo[2.2.1]heptan-2-yl)pyridin-3-yl)pyrimidin-2-amine]
- GI50 (inhibition of JAK2 activity, proliferation of Ba/F3 V617F cells): < 1000 nM

Compound: Cc1cc(Nc2nccc(-c3cnc4[nH]c5c(c4c3)CCCC5)n2)ccc1N1C[C@@H]2C[C@H]1CN2C [compound 267, 4-(6,7,8,9-tetrahydro-5H-pyrido[2,3-b]indol-3-yl)-N-(3-methyl-4-((1S,4S)-5-methyl-2,5-diazabicyclo[2.2.1]heptan-2-yl)phenyl)pyrimidin-2-amine]
- GI50 [1]: 1000 to 10000 nM

Compound: Cc1cc(Nc2nccc(-c3cnc4[nH]c5c(c4c3)CCCC5)n2)ccc1N1C[C@@H]2C[C@H]1CN2S(C)(=O)=O [compound 268, 4-(6,7,8,9-tetrahydro-5H-pyrido[2,3-b]indol-3-yl)-N-(3-methyl-4-((1S,4S)-5-(methylsulfonyl)-2,5-diazabicyclo[2.2.1]heptan-2-yl)phenyl)pyrimidin-2-amine]
- GI50 [1]: 1000 to 10000 nM

Compound: Cc1cc(Nc2nccc(-c3ccc(C(F)(F)F)cc3)n2)ccc1N1C[C@@H]2C[C@H]1CN2C [compound 269, 4-(4-(trifluoromethyl)phenyl)-N-(3-methyl-4-((1S,4S)-5-methyl-2,5-diazabicyclo[2.2.1]heptan-2-yl)phenyl)pyrimidin-2-amine]
- GI50 [1]: < 1000 nM

Compound: Cc1cc(Nc2nccc(-c3cnc4c(c3)CN3CCCC3C(=O)N4)n2)ccc1N1C[C@@H]2C[C@H]1CN2C (stereo partly drawn) [compound 270, 4-(7,8,9,9a-tetrahydro-5H-pyrido[2,3-e]pyrrolo[1,2-a][1,4]diazepin-10(11H)-on-3-yl)-N-(3-methyl-4-((1S,4S)-5-methyl-2,5-diazabicyclo[2.2.1]heptan-2-yl)phenyl)pyrimidin-2-amine]
- GI50 [1]: < 1000 nM

Compound: CN1C[C@@H]2C[C@H]1CN2c1ccc(Nc2nccc(-c3ccc4c(c3)OC(C)(C)C(=O)N4)n2)cc1C#N [compound 271, 4-(2,2-dimethyl-3-oxo-3,4-dihydro-2H-benzo[b][1,4]oxazin-7-yl)-N-(3-cyano-4-((1S,4S)-5-methyl-2,5-diazabicyclo[2.2.1]heptan-2-yl)phenyl)pyrimidin-2-amine]
- GI50 [1]: < 1000 nM

Compound: CN1C[C@@H]2C[C@H]1CN2c1ccc(Nc2nccc(-c3ccc4c(c3)CCCC(=O)N4)n2)cc1C#N [compound 272, 4-(2-oxo-2,3,4,5-tetrahydro-1H-benzo[b]azepin-7-yl)-N-(3-cyano-4-((1S,4S)-5-methyl-2,5-diazabicyclo[2.2.1]heptan-2-yl)phenyl)pyrimidin-2-amine]
- GI50 [1]: < 1000 nM

Compound: CN1C[C@@H]2C[C@H]1CN2c1ccc(Nc2nccc(-c3ccc4c(c3)SCC(=O)N4)n2)cc1C#N [compound 273, 4-(3-oxo-3,4-dihydro-2H-benzo[b][1,4]thiazin-7-yl)-N-(3-cyano-4-((1S,4S)-5-methyl-2,5-diazabicyclo[2.2.1]heptan-2-yl)phenyl)pyrimidin-2-amine]
- GI50 [1]: < 1000 nM

Compound: Cc1cc(Nc2nccc(-c3ccc4c(c3)SCC(=O)N4)n2)ccc1N1C[C@@H]2C[C@H]1CN2C [compound 274, 4-(3-oxo-3,4-dihydro-2H-benzo[b][1,4]thiazin-7-yl)-N-(3-methyl-4-((1S,4S)-5-methyl-2,5-diazabicyclo[2.2.1]heptan-2-yl)phenyl)pyrimidin-2-amine]
- GI50 [1]: < 1000 nM

Compound: Cc1cc(Nc2nccc(-c3ccc(OC4CCOCC4)nc3)n2)ccc1N1CCN2CCC1C2 (stereo not drawn) [compound 275, 4-(6-(tetrahydropyran-4-yloxy)pyridin-3-yl)-N-(3-methyl-4-(1,4-diazabicyclo[3.2.1]octan-4-yl)phenyl)pyrimidin-2-amine]
- GI50 [1]: < 1000 nM

Compound: Cc1cc(Nc2nccc(-c3ccc(N4CCOCC4)nc3)n2)ccc1N1CCN2CC[C@@H]1C2 [compound 276, 4-(6-(morpholin-4-yl)pyridin-3-yl)-N-(3-methyl-4-((R)-1,4-diazabicyclo[3.2.1]octan-4-yl)phenyl)pyrimidin-2-amine]
- GI50 [1]: < 1000 nM

Compound: Cc1cc(Nc2nccc(-c3ccc(N4CCOCC4)nc3)n2)ccc1N1CCN2CC[C@H]1C2 [compound 277, 4-(6-(morpholin-4-yl)pyridin-3-yl)-N-(3-methyl-4-((S)-1,4-diazabicyclo[3.2.1]octan-4-yl)phenyl)pyrimidin-2-amine]
- GI50 [1]: < 1000 nM

Compound: Cc1cc(Nc2nccc(-c3ccc4c(c3)CCCC(=O)N4)n2)ccc1N1CCN2C(C1)[C@H]1CC[C@@H]2C1 (stereo partly drawn) [compound 278, 4-(2-oxo-2,3,4,5-tetrahydro-1H-benzo[b]azepin-7-yl)-N-(3-methyl-4-((6R,9S)-6,9-methanooctahydro-1H-pyrido[1,2-a]pyrazin-2-yl)phenyl)pyrimidin-2-amine]
- GI50 [1]: < 1000 nM

Compound: Cc1cc(Nc2nccc(-c3ccc4c(c3)SCC(=O)N4)n2)ccc1N1CCN2C(C1)[C@H]1CC[C@@H]2C1 (stereo partly drawn) [compound 279, 4-(3-oxo-3,4-dihydro-2H-benzo[b][1,4]thiazin-7-yl)-N-(3-methyl-4-((6R,9S)-6,9-methanooctahydro-1H-pyrido[1,2-a]pyrazin-2-yl)phenyl)pyrimidin-2-amine]
- GI50 [1]: < 1000 nM

Compound: Cc1cc(Nc2nccc(-c3ccc(N4C[C@@H]5C[C@H]4CO5)nc3)n2)ccc1N1CCN2CCC1CC2 [compound 280, 4-(6-((1S,4S)-2-oxa-5-azabicyclo[2.2.1]heptan-5-yl)pyridin-3-yl)-N-(3-methyl-4-(1,4-diazabicyclo[3.2.2]nonan-4-yl)phenyl)pyrimidin-2-amine]
- GI50 [1]: < 1000 nM

Compound: Cc1cc(Nc2nccc(-c3ccc(OC4CCOCC4)nc3)n2)ccc1N1C2CCC1CC(N(C)C)C2 (stereo not drawn) [compound 283, 4-(6-(tetrahydropyran-4-yloxy)pyridin-3-yl)-N-(3-methyl-4-(3-(dimethylamino)-8-azabicyclo[3.2.1]octan-8-yl)phenyl)pyrimidin-2-amine]
- GI50 [1]: < 1000 nM
